Where two headings read alike, the source gives them in different places.
Target: T1, human PKCθ full length enzyme (Homo sapiens, UniProt Q04759)
T1 construct: human PKCθ full length enzyme (Panvera Cat# P2996); purchased Panvera P2996
Assay: PKCθ IMAP assay (fluorescence polarization)
Assay type: biochemical

[1] = human PKCθ full length enzyme, IMAP, average value, read-out: IC50 PKCθ IMAP

T1 sequence (Q04759 whole entry): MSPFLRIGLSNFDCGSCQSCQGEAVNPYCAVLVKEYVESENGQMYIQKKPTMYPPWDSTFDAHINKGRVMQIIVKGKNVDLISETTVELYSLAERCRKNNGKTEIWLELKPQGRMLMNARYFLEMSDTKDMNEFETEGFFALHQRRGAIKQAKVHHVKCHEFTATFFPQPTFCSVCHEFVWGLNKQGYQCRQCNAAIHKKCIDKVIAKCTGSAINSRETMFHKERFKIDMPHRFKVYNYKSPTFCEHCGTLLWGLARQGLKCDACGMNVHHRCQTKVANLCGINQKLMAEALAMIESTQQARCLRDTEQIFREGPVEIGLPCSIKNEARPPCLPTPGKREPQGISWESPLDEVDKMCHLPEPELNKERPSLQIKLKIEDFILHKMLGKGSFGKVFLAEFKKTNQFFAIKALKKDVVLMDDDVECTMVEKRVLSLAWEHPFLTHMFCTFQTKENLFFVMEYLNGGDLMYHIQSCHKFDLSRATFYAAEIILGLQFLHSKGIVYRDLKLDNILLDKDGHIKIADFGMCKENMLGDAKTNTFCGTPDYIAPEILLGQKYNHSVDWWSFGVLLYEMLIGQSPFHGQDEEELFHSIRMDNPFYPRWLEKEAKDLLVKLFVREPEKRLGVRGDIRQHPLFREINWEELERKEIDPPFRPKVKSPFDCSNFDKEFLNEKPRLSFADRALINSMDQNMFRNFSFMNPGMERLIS

Row | SMILES | IC50 [1] | IC50
1 | Cc1c(Nc2c(C#N)cncc2-c2ccc(OCCCN(C)C)cc2)ccc2[nH]ccc12 [Compound 475, 5-{4-[3-(dimethylamino)propoxy]phenyl}-4-[(4-methyl-1H-indol-5-yl)amino]nicotinonitrile] | 9 nM | 
2 | COCCOc1ccc(-c2cncc(C#N)c2Nc2ccc3[nH]ccc3c2C)cc1OCCOC [Compound 477, 5-[3,4-bis(2-methoxyethoxy)phenyl]-4-[(4-methyl-1H-indol-5-yl)amino]nicotinonitrile] | 72 nM | 
3 | Cc1c(Nc2c(C#N)cncc2-c2cc3cc(CO)ccc3o2)ccc2[nH]ccc12 [Compound 481, 5-[5-(hydroxymethyl)-1-benzofuran-2-yl]-4-[(4-methyl-1H-indol-5-yl)amino]nicotinonitrile] | 0.21 nM | 
4 | CN1CCN(Cc2ccc3oc(-c4cncc(C#N)c4Nc4ccc5[nH]ccc5c4)cc3c2)CC1 [Compound 485, 4-(1H-indol-5-ylamino)-5-{5-[(4-methylpiperazin-1-yl)methyl]-1-benzofuran-2-yl}nicotinonitrile] | 5 nM | 
5 | Cc1c(Nc2c(C#N)cncc2-c2ccc(CN3CCS(=O)(=O)CC3)o2)ccc2[nH]ccc12 [Compound 487, 5-{5-[(1,1-dioxidothiomorpholin-4-yl)methyl]-2-furyl}-4-[(4-methyl-1H-indol-5-yl)amino]nicotinonitrile] | 16 nM | 
6 | COc1ccc(-c2cncc(C#N)c2Nc2cnc3[nH]ccc3c2)cc1OC [Compound 488, 5-(3,4-dimethoxyphenyl)-4-(1H-pyrrolo[2,3-b]pyridin-5-ylamino)nicotinonitrile] | 2020 nM | 
7 | Cc1c(Nc2c(C#N)cncc2-c2ccc(OCCCCCl)cc2)ccc2[nH]ccc12 [Compound 490, 5-[4-(4-chlorobutoxy)phenyl]-4-[(4-methyl-1H-indol-5-yl)amino]nicotinonitrile] | 51 nM | 
8 | Cc1c(Nc2c(C#N)cncc2-c2ccc(OCCCCN3CCN(C)CC3)cc2)ccc2[nH]ccc12 [Compound 491, 4-[(4-methyl-1H-indol-5-yl)amino]-5-{4-[4-(4-methylpiperazin-1-yl)butoxy]phenyl}nicotinonitrile] | 15 nM | 
9 | Cc1cc2[nH]ccc2cc1Nc1c(C#N)cncc1-c1ccc(OCCN2CCN(C)CC2)cc1 [Compound 496, 4-[(6-methyl-1H-indol-5-yl)amino]-5-{4-[2-(4-methylpiperazin-1-yl)ethoxy]phenyl}nicotinonitrile] | 33 nM | 
10 | COc1ccc(-c2cncc(C#N)c2Nc2cc(Cl)c3[nH]ccc3c2C)cc1OC [Compound 498, 4-[(7-chloro-4-methyl-1H-indol-5-yl)amino]-5-(3,4-dimethoxyphenyl)nicotinonitrile] | 16 nM | 
11 | Cc1cc2[nH]ccc2cc1Nc1c(C#N)cncc1-c1cc2cc(CO)ccc2o1 [Compound 499, 5-[5-(hydroxymethyl)-1-benzofuran-2-yl]-4-[(6-methyl-1H-indol-5-yl)amino]nicotinonitrile] | 3 nM | 
12 | CCN(CC)Cc1ccc2oc(-c3cncc(C#N)c3Nc3cc4cc[nH]c4cc3C)cc2c1 [Compound 500, 5-{5-[(diethylamino)methyl]-1-benzofuran-2-yl}-4-[(6-methyl-1H-indol-5-yl)amino]nicotinonitrile] | 5 nM | 
13 | Cc1c(Nc2c(C#N)cncc2-c2cccc(OCCCCCl)c2)ccc2[nH]ccc12 [Compound 501, 5-[3-(4-chlorobutoxy)phenyl]-4-[(4-methyl-1H-indol-5-yl)amino]nicotinonitrile] | 89 nM | 
14 | Cc1c(Nc2c(C#N)cncc2-c2cccc(OCCCCN3CCN(C)CC3)c2)ccc2[nH]ccc12 [Compound 502, 4-[(4-methyl-1H-indol-5-yl)amino]-5-{3-[4-(4-methylpiperazin-1-yl)butoxy]phenyl}nicotinonitrile] | 21 nM | 
15 | Cc1cc2[nH]ccc2cc1Nc1c(C#N)cncc1-c1ccc(OCCN2CCC(O)CC2)cc1 [Compound 505, 5-{4-[2-(4-hydroxypiperidin-1-yl)ethoxy]phenyl}-4-[(6-methyl-1H-indol-5-yl)amino]nicotinonitrile] | 76 nM | 
16 | Cc1cc2[nH]ccc2cc1Nc1c(C#N)cncc1-c1ccc(OCCN2CCC(N3CCCC3)CC2)cc1 [Compound 506, 4-[(6-methyl-1H-indol-5-yl)amino]-5-{4-[2-(4-pyrrolidin-1-ylpiperidin-1-yl)ethoxy]phenyl}nicotinonitrile] | 83 nM | 
17 | Cc1c(Nc2c(C#N)cncc2-c2ccc(N3CCCCC3)nc2)ccc2[nH]ccc12 [Compound 508, 4-[(4-methyl-1H-indol-5-yl)amino]-6′-piperidin-1-yl-3,3′-bipyridine-5-carbonitrile] | 78 nM | 
18 | Cc1c(Nc2c(C#N)cncc2-c2cncnc2)ccc2[nH]ccc12 [Compound 509, 4-[(4-methyl-1H-indol-5-yl)amino]-5-pyrimidin-5-ylnicotinonitrile] | 261 nM | 
19 | Cc1c(Nc2c(C#N)cncc2-c2cnc(N3CCOCC3)nc2)ccc2[nH]ccc12 [Compound 511, 4-[(4-methyl-1H-indol-5-yl)amino]-5-(2-morpholin-4-ylpyrimidin-5-yl)nicotinonitrile] | 83 nM | 
20 | Cc1c(Nc2c(C#N)cncc2-c2cnc(N(C)C)nc2)ccc2[nH]ccc12 [Compound 513, 5-[2-(dimethylamino)pyrimidin-5-yl]-4-[(4-methyl-1H-indol-5-yl)amino]nicotinonitrile] | 125 nM | 
21 | Cc1c(Nc2c(C#N)cncc2-c2cccnc2)ccc2[nH]ccc12 [Compound 519, 4-[(4-methyl-1H-indol-5-yl)amino]-3,3′-bipyridine-5-carbonitrile] | 36 nM | 
22 | Cc1c(Nc2c(C#N)cncc2-c2cc3cc(CN4CCN(C)CC4)ccc3s2)ccc2[nH]ccc12 [Compound 521, 4-[(4-methyl-1H-indol-5-yl)amino]-5-{5-[(4-methylpiperazin-1-yl)methyl]-1-benzothien-2-yl}nicotinonitrile] |  | 1 nM

Second part, led by results:

Row | IC50 [1] | SMILES | IC50
23 | 13 nM | Cc1c(Nc2c(C#N)cncc2-c2ccc(OCCCN3CCCCC3)cc2)ccc2[nH]ccc12 [Compound 474, 4-[(4-methyl-1H-indol-5-yl)amino]-5-[4-(3-piperidin-1-ylpropoxy)phenyl]nicotinonitrile] | 
24 | 11 nM | COCCOc1ccc(-c2cncc(C#N)c2Nc2ccc3[nH]ccc3c2C)cc1OC [Compound 478, 5-[3-methoxy-4-(2-methoxyethoxy)phenyl]-4-[(4-methyl-1H-indol-5-yl)amino]nicotinonitrile] | 
25 | 11 nM | COCCOc1ccc(-c2cncc(C#N)c2Nc2ccc3[nH]ccc3c2C)cc1 [Compound 482, 5-[4-(2-methoxyethoxy)phenyl]-4-[(4-methyl-1H-indol-5-yl)amino]nicotinonitrile] | 
26 | 36 nM | COCCOc1cccc(-c2cncc(C#N)c2Nc2ccc3[nH]ccc3c2C)c1 [Compound 483, 5-[3-(2-methoxyethoxy)phenyl]-4-[(4-methyl-1H-indol-5-yl)amino]nicotinonitrile] | 
27 | 4 nM | Cc1c(Nc2c(C#N)cncc2-c2ccc(CN3CCN(C4CCCC4)CC3)o2)ccc2[nH]ccc12 [Compound 486, 5-{5-[(4-cyclopentylpiperazin-1-yl)methyl]-2-furyl}-4-[(4-methyl-1H-indol-5-yl)amino]nicotinonitrile] | 
28 | 61 nM | COCCOc1ccc(-c2cncc(C#N)c2Nc2cnc3[nH]ccc3c2Cl)cc1OC [Compound 492, 4-[(4-chloro-1H-pyrrolo[2,3-b]pyridin-5-yl)amino]-5-[3-methoxy-4-(2-methoxyethoxy)phenyl]nicotinonitrile] | 
29 | 7 nM | Cc1cc2[nH]ccc2cc1Nc1c(C#N)cncc1-c1cc2cc(CN3CCN(C)CC3)ccc2o1 [Compound 497, 4-[(6-methyl-1H-indol-5-yl)amino]-5-{5-[(4-methylpiperazin-1-yl)methyl]-1-benzofuran-2-yl}nicotinonitrile] | 
30 | 12 nM | Cc1c(Nc2c(C#N)cncc2-c2coc(CN3CCN(C)CC3)c2)ccc2[nH]ccc12 [Compound 503, 4-[(4-methyl-1H-indol-5-yl)amino]-5-{5-[(4-methylpiperazin-1-yl)methyl]-3-furyl}nicotinonitrile] | 
31 | 84 nM | Cc1cc2[nH]ccc2cc1Nc1c(C#N)cncc1-c1ccc(OCCN2CCCCC2)cc1 [Compound 504, 4-[(6-methyl-1H-indol-5-yl)amino]-5-[4-(2-piperidin-1-ylethoxy)phenyl]nicotinonitrile] | 
32 | 30 nM | Cc1c(Nc2c(C#N)cncc2-c2ccc(N3CCOCC3)nc2)ccc2[nH]ccc12 [Compound 507, 4-[(4-methyl-1H-indol-5-yl)amino]-6′-morpholin-4-yl-3,3′-bipyridine-5-carbonitrile] | 
33 | 300 nM | Cc1c(Nc2c(C#N)cncc2-c2cnc(N3CCCCC3)nc2)ccc2[nH]ccc12 [Compound 510, 4-[(4-methyl-1H-indol-5-yl)amino]-5-(2-piperidin-1-ylpyrimidin-5-yl)nicotinonitrile] | 
34 | 215 nM | Cc1c(Nc2c(C#N)cncc2-c2cnc(N3CCCC3)nc2)ccc2[nH]ccc12 [Compound 512, 4-[(4-methyl-1H-indol-5-yl)amino]-5-(2-pyrrolidin-1-ylpyrimidin-5-yl)nicotinonitrile] | 
35 | 23 nM | Cc1c(Nc2c(C#N)cncc2-c2cc3ccccc3s2)ccc2[nH]ccc12 [Compound 514, 5-(1-benzothien-2-yl)-4-[(4-methyl-1H-indol-5-yl)amino]nicotinonitrile] | 
36 | 5 nM | Cc1c(Nc2c(C#N)cncc2-c2csc(C=O)c2)ccc2[nH]ccc12 [Compound 516, 5-(5-formyl-3-thienyl)-4-[(4-methyl-1H-indol-5-yl)amino]nicotinonitrile] | 
37 | 8 nM | Cc1c(Nc2c(C#N)cncc2-c2cc(C=O)co2)ccc2[nH]ccc12 [Compound 517, 5-(4-formyl-2-furyl)-4-[(4-methyl-1H-indol-5-yl)amino]nicotinonitrile] | 
38 | 5 nM | Cc1c(Nc2c(C#N)cncc2-c2csc(CN3CCN(C)CC3)c2)ccc2[nH]ccc12 [Compound 518, 4-[(4-methyl-1H-indol-5-yl)amino]-5-{5-[(4-methylpiperazin-1-yl)methyl]-3-thienyl}nicotinonitrile] | 
39 | 73 nM | CN1CCN(CCOc2ccc(-c3cncc(C#N)c3Nc3ccc4[nH]ccc4c3)cc2)CC1 [Compound 520, 4-(1H-indol-5-ylamino)-5-{4-[2-(4-methylpiperazin-1-yl)ethoxy]phenyl}nicotinonitrile] | 
